Data as given in patent US20070292351A1, “Assay for efficacy of histone deacetylase inhibitors” (Methylgene, Inc., priority 2006, published 2007).
Values joined by “and” are separate entries in the source; they are usually repeats but may differ in a detail not shown here. Equal entries are not always repeated. Where two headings read alike, the source gives them in different places.

How the values were obtained:
[1] = test system: human leukemic MV-4-11 cells; assay: Microarray gene expression analysis, MV-4-11 cells in vitro; assay type: cell-based; conditions: MV-4-11 in vitro, 1 uM, c2-c5 = sample 1, 2, 3, sample 3 dye swap
Procedure: (§1) Human cancer cell lines were from American Type Culture Collection (Manassas, Va.) and were all cultured following the vendor's instructions.
(§2) Biological analysis was performed using Biointerpreter software.

[2] = test system: peripheral white blood cells from healthy volunteers; assay: Semi-quantitative PCR of MT3 in peripheral white blood cells treated ex vivo; assay type: cell-based, human; conditions: 24 hr or 48 hr (FIG. 6)
Procedure: Peripheral white blood cells were isolated from healthy volunteers and treated ex vivo with MGCD0103 at indicated doses for 24 hr or 48 hr. RNA was extracted to monitor MT3 mRNA level by conventional semi-quantitative PCR (normalized to β-actin).
(§3) Whole blood from either consenting healthy volunteers or consenting patients was centrifuged at 2500 rpm for 10 minutes at ambient temperature in a Sorvall RT-7 centrifuge (Mandel Scientific Co., Guelph, Ontario). Plasma was removed and buffy coat was collected. Five volumes of Erythrocyte Lysis Buffer (EL) (Qiagen Canada Inc., Mississauga, Ontario) were added into buffy coat. Buffy coat was incubated on ice for 20 minutes before it was centrifuged at 400 g for 10 minutes at 4° C. Supernatant was removed and buffy coat was washed twice with EL buffer and re-centrifuged. Buffy coat was resuspended in RPMI media and cells were counted with trypan blue exclusion. To isolate PBMCs, buffy coat cells were centrifuged over Lymphoprep (Axis-Shield, 1114544), and any remaining erythrocytes in the sample were lysed by treatment with EL lysis buffer (Qiagen, 79217). The cell pellets are washed and then re-suspended in RPMI containing 10% FBS.
RNA was extracted from 8×10^6 cells using the Qiagen RNeasy Mini kit (cat#74106, Qiagen, Missisauga Ont.) following the manufacturer's instructions. […]

[3] = test system: human H460 tumors in mice; assay: Microarray gene expression analysis, implanted H460 tumors in vivo
Procedure: as §2
Human non-small cell lung carcinoma NSCLC-H460 cells (2 million) were injected subcutaneously in the animal flank and allowed to form solid tumors. Tumor fragments were passaged in animals for a minimum of three times before their use. Tumor fragments (about 30 mg) were implanted subcutaneously through a small surgical incision under general anesthesia to Balb/cA female nude mice (6-8 weeks old). Recipient animals were treated with either vehicle (0.1 N HCl) or MGCD0103 (2HBr salt, in 0.1 N HCl) 100 mg/kg orally. Tumors were harvested after one dose of either 6 hour or 24 hours post administration of vehicle or MGCD0103. Each experimental group contained 3 animals. Tumor tissues were deposited in RNAlater (Qiagen, Missisauga Ontario) for total RNA extraction.

Jurkat-T leukemic cells = assay: RT-PCR of MT3 transcription in Jurkat-T cells; assay type: cell-based, human; conditions: 16 h, semi-quantitative RT-PCR (FIG. 2)
Procedure: RNA was extracted from 8×10^6 cells using the Qiagen RNeasy Mini kit (cat#74106, Qiagen, Missisauga Ont.) following the manufacturer's instructions. RT reaction was performed using the Expand Reverse Transcriptase kit from Roche (Cat#1 785 834 Roche Applied Biosciences, Laval, Que) with 1 μg total RNA together with 1 μl oligo(dT) primer (cat#y01212, Invitrogen-Canada, Burlington, Ont). cDNA was synthesized using an Eppendorf Mastercycler gradient PCR apparatus (Brinkmann Instruments Canada LTD., Mississauga, Ontario), using a two cycle protocol. For the 1st cycle reaction mixture (0.5 μl H2O, 4 μl of 5× Buffer, 2 μl DTT, 2 ul of 10 mM dNTPs, 0.5 μl RNAsin (cat#N211B, Promega, Fisher Scientific, Whitby, Ont.) and […] of the Expand Reverse Transcriptase (Cat#1785834, Roche, Laval, Quebec)) was incubated at 65° C. for 10 minutes and then set on ice. A second cycle was performed at 42° C. for 1 hour. The resulting cDNA products were kept at 4° C. until used.
One ul of the resulting cDNA was used for every amplification reaction with 18.9 ul H2O, 1.25 ul of 10 mM dNTPs, 0.5 ul of each primer pair, 2.5 ul of 10× Buffer. The PCR reaction was carried out in an Eppendorf Mastercycler gradient. The sequences of the primers used for the amplification of selected biomarkers, as well as the details of the PCR reaction cycles are featured below. […]

peripheral white cells = assay: Cytokine/chemokine transcription in peripheral white cells treated ex vivo; assay type: cell-based, human
Procedure: FIG. 15 Induction of transcription of IL-6, IL-8, IL-1b, MIP1b cytokine/chemokines by MGCD0103 in peripheral white cells ex vivo from a MDS patient and in vivo in an AML patient with response (Patient J).
as §3

human colon HCT15 cells = assay: Microarray gene expression analysis, HCT15 cells in vitro; assay type: cell-based; conditions: HCT-15, HCT15 in vitro
Procedure: as §1, §2

## Nc1ccccc1NC(=O)c1ccc(CNc2nccc(-c3cccnc3)n2)cc1 [MGCD0103]
[1]
  Ratio vs control, ADORA1: 3.6 and 5.4 and 5.1
  Ratio vs control, AHR: 11.3 and 10.5 and 13.1 and 10.2
  Ratio vs control, APOE: 5.9 and 6.3 and 6.0 and 6.1
  Ratio vs control, AXUD1: 2.5 and 3.9 and 3.1
  Ratio vs control, BMF: 6.0 and 7.4 and 6.7 and 7.1
  Ratio vs control, CARD10: 2.7 and 4.4 and 3.0 and 3.9
  Ratio vs control, CASP5: 2.7 and 2.5 and 3.0 and 2.6
  Ratio vs control, CASP7: 5.0 and 7.2 and 5.2 and 5.8
  Ratio vs control, CAST: 2.7 and 3.0 and 2.5 and 3.2
  Ratio vs control, CD40: 8.0 and 7.2 and 7.0 and 8.7
  Ratio vs control, CDKN1A: 4.4 and 4.0 and 4.6 and 3.9
  Ratio vs control, CLU: 20.2 and 13.8 and 14.7 and 14.4
  Ratio vs control, DNASE2: 10.5 and 11.4 and 12.1 and 12.9
  Ratio vs control, EIF2AK2: 17.9 and 21.1 and 18.1 and 26.7
  Ratio vs control, GPR65: 7.8 and 6.5 and 7.9 and 6.6
  Ratio vs control, HIPK2: 4.1 and 6.6 and 4.6 and 4.2
  Ratio vs control, IL1B: 9.6 and 11.2 and 8.5 and 11.4
  Ratio vs control, IL3RA: 4.4 and 4.3 and 5.1 and 3.3
  Ratio vs control, IL18: 4.5 and 7.9 and 6.5 and 5.5
  Ratio vs control, LY86: 4.5 and 3.6 and 3.8 and 4.3
  Ratio vs control, MAP3K14: 2.6 and 2.8
  Ratio vs control, MX1: 35.8 and 27.5 and 38.0 and 23.2
  Ratio vs control, NALP1: 7.3 and 7.4 and 6.4
  Ratio vs control, NGFR: 3.0 and 2.7 and 2.6 and 2.8
  Ratio vs control, PDE1B: 4.3 and 3.4 and 4.8 and 3.6
  Ratio vs control, PPP3CA: 2.7 and 3.0 and 3.3 and 2.6
  Ratio vs control, PRKAR2B: 10.8 and 7.2 and 11.1 and 7.6
  Ratio vs control, TNFRSF21: 4.1 and 6.4 and 4.7 and 5.2
  Ratio vs control, TNFRSF25: 4.2 and 4.0 and 4.4 and 3.6
  Ratio vs control, TNFSF10: 7.4 and 7.2 and 10.1 and 5.6
  Ratio vs control, TNFSF14: 5.1 and 3.7 and 3.9 and 4.6
[1]; gene listed twice (r23, r58)
  Ratio vs control, BNIP3L: 4.9 and 3.2 and 3.4 and 2.6 and 3.5 and 2.9
[1]; gene listed twice (r64, r66)
  Ratio vs control, CASP4: 2.7 and 2.8 and 2.6 and 2.9 and 3.0 and 2.5 and 3.1
[2]
  Induction of MT3 transcription ex vivo: time-dependent and dose-dependent
[3]
  Fold induction of CDKN1C transcription: 3.1 fold
  Fold induction of CXCL14 transcription: 3.4 fold
  Fold induction of IER3 transcription: 3.2 fold
  Fold induction of KRTHA2 transcription: 2.6 fold
  Fold induction of MT3 transcription: 2.2 fold
  Fold induction of PROM1 transcription: 3.1 fold
  Fold induction of SNIP transcription: 2.8 fold
  Fold induction of SOD2 transcription: 2.8 fold
  Fold induction of TNF transcription: 2.8 fold
Jurkat-T leukemic cells
  Dose-dependent induction of MT3 transcription: Dose-dependent induction
Peripheral white cells; peripheral white cells ex vivo from a MDS patient (Patient J) (FIG. 15)
  induction of transcription of IL-6, IL-8, IL-1b, MIP1b: induction
Peripheral white cells; peripheral white cells from healthy volunteers treated ex vivo (FIG. 15)
  induction of transcription of IL-6, IL-8, IL-1b, MIP1b: No such induction
Human colon HCT15 cells; probe A_23_P16523, read-out: Fold Induction of GDF15 transcription
  fold induction at 1 µM: 4.18
Human colon HCT15 cells; probe A_23_P41344, read-out: Fold Induction of EREG transcription
  fold induction at 1 µM: 4.62
Human colon HCT15 cells; probe A_23_P52336, read-out: Fold Induction of UNC5B transcription
  fold induction at 1 µM: 5.7
Human colon HCT15 cells; probe A_23_P94754, read-out: Fold Induction of TNFSF15 transcription
  fold induction at 1 µM: 4.11
Human colon HCT15 cells; probe A_23_P114947, read-out: Fold Induction of RGS2 transcription
  fold induction at 1 µM: 2.75
Human colon HCT15 cells; probe A_23_P142506, read-out: Fold Induction of GADD45B transcription
  fold induction at 1 µM: 3.1
Human colon HCT15 cells; probe A_23_P149019, read-out: Fold Induction of BAI2 transcription
  fold induction at 1 µM: 5.13
Human colon HCT15 cells; probe A_23_P151046, read-out: Fold Induction of KLRC1 transcription
  fold induction at 1 µM: 9.29
Human colon HCT15 cells; probe A_23_P259071, read-out: Fold Induction of AREG transcription
  fold induction at 1 µM: 9.39
Human colon HCT15 cells; probe A_23_P315273, read-out: Fold Induction of MT3 transcription
  fold induction at 1 µM: 7.65
Human colon HCT15 cells; probe A_24_P5856, read-out: Fold Induction of TNFSF9 transcription
  fold induction at 1 µM: 2.96
Human colon HCT15 cells; probe A_24_P217520, read-out: Fold Induction of EREG transcription
  fold induction at 1 µM: 4.14
